# Measured values published in patent US20090197957A1, “Methods and compositions for the treatment of pain” (Nuon Therapeutics, Inc., priority 2005, published 2009).
# Key:
# [1] = tested on: collagen-induced arthritis (CIA); test: Development of collagen-induced arthritis (treatment from day of immunisation); format: in vivo, DBA/1 mice; settings: 200 mg/kg/day from the day of immunisation
# Procedure: Type II collagen was purified from bovine cartilage, as described [Williams 2004, Methods Mol. Med. 98:207-216] and solubilized by stirring overnight at 4° C. in acetic acid (0.1M) or Tris buffer (0.05 M Tris, containing 0.2 M NaCl, pH 7.4). 3,4-DAA was synthesised by Angiogen Pharmaceuticals Pty. Ltd. For in vivo studies 3,4-DAA was dissolved at a maximum concentration of 10 mg/ml in 1% sodium bicarbonate by heating for 1 h at 70° C. Upon cooling, an emulsion was formed. For in vitro studies 3,4-DAA was dissolved in dimethyl sulphoxide (DMSO). 3-Hydroxy-anthranilic acid (3-HAA) was purchased from Sigma (Poole, UK) and dissolved in PBS.
# Male DBA/1 mice (8-12 weeks old) were immunized intradermally at the base of the tail with bovine type II collagen (200 μg) emulsified in complete Freund's adjuvant (CFA; Difco, West Molesley, UK). Arthritis was monitored clinically using the following scoring system: 0=normal, 1=slight swelling and/or erythema, and 2=pronounced oedematous swelling. Each limb was graded, giving a maximum score of 8 per mouse. In addition, paw-swelling was measured using callipers.
# In order to assess its anti-arthritic potential, 3,4-DAA was injected into DBA/1 mice (200 mg/kg/day) from the day of immunisation with type II collagen in CFA. […]
# [2] = 11,484 patients with restenosis following percutaneous coronary intervention; cited from earlier work
# [3] = tested on: draining (inguinal) lymph node cells; test: Lymph node cell cytokine responses from treated CIA mice (72 h culture, ELISA); format: in vivo
# Procedure: FIG. 4 is a graphical representation of the results of mice with established CIA being treated for 10 days with 3,4-DAA or vehicle control. Mice were then killed and draining (inguinal) lymph node cells were cultured for 72 h in the absence or presence of type II collagen.
# Inguinal lymph nodes were excised from 3,4-DAA-treated and control mice. Alternatively, inguinal lymph nodes were removed from untreated arthritic mice (day 1-5 of arthritis) and 3,4-DAA was added in vitro. In both cases, a single cell suspension was prepared and LNC were cultured in RPMI 1640 containing FCS (10% v/v), 2-mercaptoethanol (20 μM), L-glutamine (1% w/v), penicillin (100 U/ml) and streptomycin (100 μg/ml) in the presence or absence of type II collagen (50 μg/ml). Secreted cytokines (IFN-γ, IL-5, and IL-10) were measured after 72 h. by ELISA. In brief, 96 well ELISA plates were coated with the respective capture antibody, blocked with bovine serum albumin (2% w/v), and then incubated with LNC culture supernatants overnight at 4° C. After washing, bound cytokines were detected using biotinylated detect antibodies. A standard curve was generated using known concentrations of the appropriate recombinant cytokine and the concentrations of cytokines present in culture supernatants were estimated by reference to the standard curve.
# At the end of the experiment draining (inguinal) LNC from control and treated mice were cultured for 72 h in the presence or absence of type II collagen. IFN-γ, IL-5 and IL-10 production was measured by ELISA.
# [4] = tested on: astrocytes in the spinal cord (GFAP); test: GFAP immunohistochemistry of lumbar spinal cord (astrocytic activation); format: in vivo, mice; settings: 10 days following onset of arthritis; 3,4-DAA 200 mg/kg/day, dexamethasone 0.5 mg/kg/2 days
# Procedure: FIG. 6 is an image depicting that 3,4-DAA inhibits mechanical and thermal allodynia, and inhibits astrocytic activation in arthritic mice. Mechanical (a) and thermal (b) allodynia, and paw swelling (c) and clinical score (d) were assessed in naïve mice on the day of arthritis onset, and up to 10 days following therapy with 200 mg/kg 3,4-DAA, […] dexamethasone, or vehicle. […] Whilst 3,4-DAA therapy reduced astrocytic activation (bottom right panel) dexamethasone had no action on GFAP levels (bottom left panel). Quantification of the number of hyper-plastic astrocytes in the spinal cord 10 days following onset of arthritis was performed (f).
# Upon completion of treatment, animals were sacrificed by CO2 exposure, and the lumbar spinal cord was excised, fixed (10% formalin), and embedded in paraffin. Immunohistochemistry was then performed to detect astrocytes with a rabbit-anti GFAP (glial fibrillary acidic protein) antibody (Dako Cytomation, Glostrup, Denmark). Antibody detection was performed using an ABC peroxidase method (Vector Laboratories, High Wycombe, Bucks., U.K.) (32).
# Astrocytic activation has been proposed to be important for the generation of both inflammatory and neuropathic hypersensitivity [Bao et al., 2001, Neuroreport 12:3905-3908; Watkins et al., 2001, Trends Neurosci. 24:450-455]. Astrocytic activation in the spinal cord in CIA was therefore assessed. […]
structure (smiles),measurement,setting,value
"COc1ccc(/C=C/C(=O)Nc2ccccc2C(=O)O)cc1OC [Tranilast, 2-[[3-(3,4-dimethoxyphenyl)-1-oxo-2-propenyl]amino]benzoic acid]",clinical score of arthritis by day 28,[1],1
same,mice that had developed arthritis by day 28,[1]; 7 mice,14%
same,adverse cardiovascular events,[2],no significant increase
same,differences between the groups in cytokine production on re-stimulation with collagen,[3]; 72 h culture in presence of type II collagen,not significant
same,IFN-γ production by lymph node cells,"[3]; mice given 400 mg/kg (b205 prints 400 mg/mouse) for 10 days, 72 h culture without collagen",significantly reduced
same,IL-10 production by lymph node cells,"[3]; mice treated for 10 days, 72 h culture",no IL-10 was detected
same,number of activated astrocytes in the spinal cord (GFAP staining),[4],significantly reduced
